# Active and inactive are the calls of the source.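 The calls were made as follows: active = fitted curve reaching 35% inhibition at a dose no higher than twice the top valid tested dose; inconclusive = flat fit with 30 to 70% inhibition, or a poor fit; inactive = the rest, including activity in the opposite direction.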
# Tested on: not listed separately
# Test: NR0B1 reporter signal reduction in A673 cells – cell-based, luciferase luminescence, cherry-pick, EWS/Fli inhibitor project, dose response (AID 686920)
# Details: A673 NR0B1-luciferase reporter, viability-normalised luminescence; at 7.5 µM (top of the series)
row,SMILES,"activity change, negative = inhibition"
1,O=C(CCCCl)Nc1nc(-c2ccc3c(c2)OCCO3)cs1,80% (inactive)

# Same assay, conditions: A673 NR0B1-luciferase reporter, viability-normalised luminescence; at 21 µM (top of the series)
row,SMILES,"activity change, negative = inhibition"
1,COCc1cc(C)nc2sc(C(=O)NCCO)c(-n3cccc3)c12,112% (inactive)
2,O=C1CCCC2=C1C(c1ccccn1)Nc1ccc(C(=O)c3ccccc3)cc1N2 (configuration not stated),8.98% (inactive)
3,Cc1ccc(Cc2c(-c3ccco3)nc3c(C)cc(Br)cn23)cc1,77.8% (inactive)
4,COC(=O)C[C@@H]1CC[C@@H]2[C@@H](COc3ccc(NC(=O)Nc4cccc(F)c4)cc3C(=O)N2C)O1,-4.28% (inactive)
5,COc1cc(C(c2c(C)[nH][nH]c2=O)c2c(C)[nH][nH]c2=O)ccc1OC(C)C,28.1% (inactive)

# Same assay, conditions: A673 NR0B1-luciferase reporter, viability-normalised luminescence; at 68 µM (top of the series)
row,SMILES,"activity change, negative = inhibition"
1,COc1ccc(C/C(N)=N/OC(C)=O)cc1OC,13.8% (inactive)
2,Nc1nc(N)c2c(ccc3nccc32)[nH]1,55.3% (inactive)
3,COC(=O)C[C@H]1CC[C@@H]2[C@H](COc3ccc(NC(=O)Nc4cccc(Cl)c4)cc3C(=O)N2C)O1,14.5% (inactive)
4,CN(C)Cc1c(O)ccc2c1O/C(=C\C=C\c1ccccc1)C2=O,5.05% (inactive)
5,COc1cc(/C=N\Nc2nc(-c3ccc(C)cc3)c(NC(C)=O)s2)ccc1O,80.8% (inactive)
6,CC(=O)c1ccc(N(C(=O)Cn2nnc3ccccc32)C(C(=O)NCc2ccccc2)c2ccccn2)cc1 (configuration not stated),102% (inactive)
7,CCCc1nc2ccc(NC(=O)c3cccs3)cc2c(=O)n1Cc1ccccc1Cl,5.64% (inactive)
8,Nc1ccn([C@@H]2O[C@H](CO)[C@@H](O)C2O)c(=O)n1 (some centres not stated),-31.3% (inactive)
9,O=C(CNC(=O)Cc1ccccc1)N=Nc1c(O)n(Cc2ccc3c(c2)OCO3)c2ccccc12,-28.3% (inactive)
10,CN(C)C(=S)N=Nc1[nH]c2ccccc2c1O,13% (inactive)
11,N=c1ccn2c(n1)O[C@H]1[C@H](O)[C@@H](CO)O[C@H]12,-26.9% (inactive)
12,CCn1c(/C=N/NC(=O)c2ccc(OC)cc2)nc2ccccc21,30.3% (inactive)
13,Oc1c(Cl)cc(Cl)c2cccnc12,-29.3% (inactive)
14,CCS(=O)(=O)N1Cc2ccccc2CC1C(=O)Nc1nnc(SCc2ccc(C#N)cc2)s1 (configuration not stated),-0.731% (inactive)
15,COC(=O)c1c(C)[nH]c(/C=N/Nc2ccccc2)c1C,38.6% (inactive)
16,C=CCOC(=O)c1sc(NC(=O)c2ccc(OC)cc2)nc1C,39% (inactive)
17,Cc1occc1-c1n[nH]c(=S)n1C,10.2% (inactive)
18,COc1cc(/C=N/NC(=O)c2csc3c2CCCC3)cc(OC)c1O,16.3% (inactive)
19,C[C@H](CO)N1C[C@H](C)[C@H](CN(C)Cc2ccc(C(=O)Nc3ccccc3N)cc2)Oc2ccc(N(C)C)cc2CC1=O,10.7% (inactive)
20,CC(Oc1cccc(Cl)c1)C(=O)NCCCCc1ccccc1 (configuration not stated),4.85% (inactive)
21,COc1ccc(-c2cn(-c3ccc(OC)cc3)c3[n+]2-c2ccccc2CC3)cc1,-21.1% (inactive)
22,COC(=O)C[C@@H]1CC[C@@H]2[C@H](COc3ccc(NC(=O)c4cc(F)cc(F)c4)cc3C(=O)N2C)O1,-0.173% (inactive)
23,N/C(Cc1nc(-c2ccc(F)cc2)cs1)=N\O,42.1% (inactive)
24,CCc1c(C(=O)NN2C(=O)C3CCCCC3C2=O)csc1C (configuration not stated),27.7% (inactive)

row,SMILES,"activity change, negative = inhibition"
1,c1cncc(-c2ccc([C@@H]3[C@H]4CNC[C@@H]3N4CC3CCOCC3)cc2)c1,-7.31% (inactive)
2,C(=C\c1ccc(C2[C@H]3CNC[C@@H]2N3Cc2ccccn2)cc1)/c1ccccc1 (some centres not stated),32.3% (inactive)
3,C/C(=N\N(c1ccccc1)c1ccccc1)c1ccco1,-1.23% (inactive)
4,CCOc1cc2[nH]c(=S)n(Cc3ccc(C(=O)N4CCN(C)CC4)cc3)c(=O)c2cc1OCC,20% (inactive)
5,COc1ccccc1NS(=O)(=O)c1cc(NC(=O)c2cc3ccccc3oc2=O)ccc1C,53.4% (inactive)
6,COC(=O)C[C@@H]1CC[C@@H]2[C@H](COc3ccc(NC(=O)c4ccc(F)cc4)cc3C(=O)N2C)O1,-47% (inactive)
7,CCCCOc1ccc(NC(=O)C(=O)NCCCn2ccnc2)cc1,-0.492% (inactive)
8,COC(=O)C[C@@H]1CC[C@@H]2[C@@H](COc3ccc(NC(=O)Nc4cccc(Cl)c4)cc3C(=O)N2C)O1,-7.4% (inactive)
9,C/C=C/c1ccc(C2[C@@H]3CN(C(=O)Cc4ccccc4)C[C@H]2N3)cc1 (some centres not stated),-8.33% (inactive)
10,COC(=O)C(CC#Cc1ccc2c(c1)[C@]1(C(=O)N2)[C@H](c2ccc(OCCO)cc2)N2[C@H](c3ccccc3)[C@H](c3ccccc3)OC(=O)[C@H]2[C@@H]1C(=O)N1CCN(c2ncccn2)CC1)C(=O)OC,0.883% (inactive)
11,Cc1cc(C(=O)NNC(=O)c2ccc(S(=O)(=O)N(C)C)cc2)c(C)o1,5.18% (inactive)
12,CN(C)C(=O)c1ccc(-c2ccccc2[C@@H]2[C@@H](CO)N(C(=O)C3CC3)[C@H]2C#N)cc1,-1.25% (inactive)
13,COc1cccc(S(=O)(=O)N(C)C[C@H]2OCc3cnnn3CCCC(=O)N([C@@H](C)CO)C[C@H]2C)c1,-19.9% (inactive)
14,Cc1ccccc1N=Nc1c(O)n(C)c2ccccc12,-31.3% (inactive)
15,COC(=O)[C@H]1[C@H](CO)[C@H]2Cn3c(ccc(-c4ccccc4F)c3=O)[C@@H]1N2CC1CCCC1,-18% (inactive)
16,COC(=O)C[C@H]1C=C[C@@H](NC(=O)Nc2ccc(C(F)(F)F)cc2)[C@H](CO)O1,8.17% (inactive)
17,CCNC(=O)[C@@H]1[C@@H](CO)[C@@H]2Cn3c(ccc(C4=CCCCC4)c3=O)[C@H]1N2CC,-2.58% (inactive)
18,O=C(Cc1nn[nH]n1)c1ccccc1O,7.17% (inactive)
19,S=C(NCCN1CCOCC1)Nc1ccccc1Cl,15.5% (inactive)
20,CCc1ccc(Cn2ncc3c(C(=O)O)cc(C)nc32)cc1,13.8% (inactive)
21,CC(=O)Nc1ccc(OCC(=O)N(CC(C)C)C2CCS(=O)(=O)C2)cc1 (configuration not stated),6.28% (inactive)
22,O=C(Nc1cccc(Oc2ccc3c(c2)C(=O)NC3=O)c1)c1cccs1,-4.58% (inactive)
23,CN(C(=O)COC(=O)c1cc(-c2ccccc2Cl)nc2ccccc12)C1CCS(=O)(=O)C1 (configuration not stated),9.88% (inactive)
24,COc1ccc(OC)c(-c2cc(C(F)(F)F)c3c(n2)sc2c(O)cc(=O)[nH]c23)c1,5.23% (inactive)

row,SMILES,"activity change, negative = inhibition"
1,Cc1c(N=Cc2cc(Br)cc(Br)c2O)cccc1C(=O)O,14.9% (inactive)
2,Brc1ccc(CSc2nnc(-c3ccco3)o2)cc1,86.7% (inactive)
3,Nc1ncn([C@@H]2O[C@H](CO)[C@@H](O)[C@H]2O)c(=O)n1,-32.1% (inactive)
4,Cc1ccsc1C(=O)OCC(=O)NCCC1=CCCCC1,97.5% (inactive)
5,CCOc1ccc(NC(=O)C(=O)N/N=C\c2ccc(CNS(=O)(=O)c3ccccc3)o2)cc1,-7.85% (inactive)
6,CC(NC(=O)c1ccco1)c1nc(-c2ccc(C(C)(C)C)cc2)no1 (configuration not stated),73.3% (inactive)
7,C/C=C/c1ccc([C@H]2[C@@H](CO)N3C(=O)CN(S(=O)(=O)c4cccc(F)c4)C[C@@H]23)cc1,-7.12% (inactive)
8,Cc1noc(C)c1C(=O)Nc1sccc1C(N)=O,20.7% (inactive)
9,Cc1noc(C)c1NC(=O)Nc1ccc2c(c1)CC(=O)N([C@@H](C)CO)C[C@@H](C)[C@@H](CN(C)Cc1ccc(Cl)c(Cl)c1)O2,-31.5% (inactive)
10,COC(=O)C[C@@H]1CC[C@@H]2[C@H](COc3ccc(NC(=O)c4cccc(Cl)c4)cc3C(=O)N2C)O1,-6.57% (inactive)
11,CN(C)[C@@H]1CCC[C@@H]1OC(=O)C(c1ccccc1)c1ccccc1,12.1% (inactive)
12,COC(=O)C[C@@H]1CC[C@@H]2[C@H](COc3ccc(NC(=O)Nc4cccc(C#N)c4)cc3C(=O)N2C)O1,-24.9% (inactive)
13,COC(=O)C[C@H]1CC[C@H]2[C@@H](COc3ccc(NC(=O)Nc4cccc(Cl)c4)cc3C(=O)N2C)O1,18.6% (inactive)
14,Cc1ccc(NC(=O)COC(=O)c2ccc3c(c2)OCO3)cc1S(=O)(=O)N1CCCCC1,9.71% (inactive)
15,COC(=O)C[C@@H]1CC[C@@H]2[C@@H](COc3ccc(NC(=O)Cc4cccs4)cc3C(=O)N2C)O1,-27.4% (inactive)
16,COC(=O)C[C@H]1CC[C@@H](NC(=O)Nc2ccc(C(F)(F)F)cc2)[C@H](CO)O1,16.7% (inactive)
17,Cc1ccc(N=C2NC(=O)/C(=C\c3cccs3)S2)cc1C,48.8% (inactive)
18,COc1ccc(NC(=S)N=Nc2c(O)[nH]c3ccccc23)cc1,29.4% (inactive)
19,COc1ccccc1-c1cn(CC[C@H]2CC[C@@H](NC(=O)C3CCCC3)[C@@H](CO)O2)nn1,-4.29% (inactive)
20,COC(=O)C[C@@H]1CC[C@@H]2[C@H](COc3ccc(NC(=O)Nc4cccc(Cl)c4)cc3C(=O)N2C)O1,-19.3% (inactive)
21,CC1(CCc2ccccc2)NC(=O)N(CC(=O)N2CC(=O)Nc3ccccc32)C1=O (configuration not stated),6.97% (inactive)
22,CCCn1nnc(NC(=S)NC(=O)C(C)(C)C)n1,37.8% (inactive)

# Tested on: A673 NR0B1-luciferase reporter, viability-normalised luminescence
# Test: as above
# Details: not given
row,SMILES,AC35 [µM]
1,COc1cc(/C=N/NS(=O)(=O)c2ccc(C)cc2)ccc1OCc1cccc(C(=O)O)c1,4.09
